Data set [1] can be described thus: Drug substance and tablet retest date. The format is physicochemical. The note with it: drug substance, storage at 25° C. The procedure:
The vildagliptin drug substance (DS) is sensitive to moisture. Very tight packaging is necessary. Current retest date is 30 months with storage at 25° C.
For the CSF 100 mg, 150 mg and 200 mg strengths, the stability data are available up to 12 months at 25° C./60% RH and 30° 60% RH. […] The composition of vildagliptin 150 mg modified release tablets is bracketed by 100 mg and 200 mg strengths. Therefore, the stability of 150 mg tablets is expected to be same as 100 mg and 200 mg strengths. Thus a re-test period similar to that of 100 and 200 mg strengths is applied for 150 mg tablets.

The nature of data set [2]: Water solubility of drug substance. It is filed as physicochemical. The settings on record: heading: water solubility. The source says:
A once a day MR dosage form is likely to require a significant level of polymer load for retarding drug diffusion. During the development, the applicant has selected monolithic formulation with low risk for dose dumping, eliminating coating technologies in favor of a matrix formulation. After intensive studies on compatibility, ability to retard diffusion pharmacokinetic and pharmacodynamic studies, and regulatory acceptance requirements the applicant narrowed the polymer choice to hydrophilic polymers, especially hydroxpropyl methyl cellulose (HPMC).

Usually solubility stands for how much of the substance goes into solution per volume. A lower solubility goes with little dissolved substance.

The compound `N#C[C@@H]1CCCN1C(=O)CNC12CC3CC(CC(O)(C3)C1)C2` [vildagliptin, 1-[(3-Hydroxy-adamant-1-ylamino)-acetyl]-pyrrolidine-2(S)-carbonitrile] had a retest date in data set [1] of 30 months. This compound also came in with a solubility in data set [2] greater than 125 mg/mL.

The values are drawn from patent publication US20110086096A1, “MODIFIED RELEASE 1- [ (3-HYDROXY-ADAMANT-1-YLAMINO)-ACETYL] -PYRROLIDINE-2 (S) -CARBONITRILE FORMULATION” (priority 2005, published 2011).
